Laboratory results reported in PMC3849131, “^18 F-click labeling and preclinical evaluation of a new ^18 F-folate for PET imaging” (EJNMMI Research, 2013).

Legend:
KB tumor-bearing mice = experiment: Ex vivo biodistribution in human KB tumor-bearing nude mice; conditions: for Ratio of tumor to Blood / Ratio of tumor to Kidney / Ratio of tumor to Liver / %ID/g Blood / %ID/g Bone / %ID/g Feces / %ID/g Gall bladder / %ID/g Heart / %ID/g Intestines (empty) / %ID/g Tumor / %ID/g Kidneys / %ID/g Liver / %ID/g Lung / %ID/g Muscle / %ID/g Salivary glands / %ID/g Spleen / %ID/g Stomach (empty): n = 3; for %ID/g Tumor: KB tumor
Method: All animal experiments were approved by the local veterinary department and complied with Swiss and local laws on animal protection. Female CD-1 nude mice (Charles River, Sulzfeld, Germany) were fed with a folate-deficient rodent diet (Harlan Laboratories, Indianapolis, IN, USA). After an acclimatization period of 5 to 7 days, human KB tumor cells (5 × 10^6 cells in 0.1 mL sterile phosphate-buffered saline (PBS)) were inoculated subcutaneously on both shoulders of each mouse. Twelve days later, the animals were intravenously injected with [^18 F]12 (approximately 5 MBq, 100 μL). […] Animals were euthanized at the indicated time points, and selected organs and tissues were collected, weighed, and measured in a γ-counter. The incorporated radioactivity was expressed as percentage injected dose per gram (%ID/g) of tissue. PET/computed tomography (CT) experiments were performed with a dedicated small-animal PET/CT scanner (eXplore Vista PET/CT, Sedecal, Algete, Spain/GE Healthcare). Animals were intravenously injected with [^18 F]12 (approximately 13 MBq, 100 μL). For scanning, mice were anesthetized with isoflurane in an air/oxygen mixture. The PET scans were acquired from 60 to 90 min post-injection (p.i.) followed by a CT. After acquisition, PET data were reconstructed in user-defined time frames, and the fused datasets of PET and CT were analyzed with PMOD software (version 3.4).
Biodistribution studies of the new ^18 F-folate [^18 F]12 were performed using human KB tumor-bearing nude mice, determined at 30, 60, and 90 min post-injection. […] Selective blocking of the folate receptors led to a decrease in specific radiotracer accumulation of 94% in KB tumors and 99% in kidneys (Figure 2). The strong blocking effect reflected the high specificity of the tracer to the FR in vivo. Unspecific liver uptake decreased from 5.2%ID/g to 2.1%ID/g over 90 min similar to the background radioactivity in the feces and gall bladder (Table 2), which is believed to be a beneficial effect of the increased polarity of this novel radiofolate. Compared to the biodistribution profile at 45 min post-injection of the former ^18 F-click folate by Ross and co-workers, the specific uptake of the original ^18 F-click folate in KB tumors was retained, whereas the specific kidney uptake more than doubled. This indicated a stronger tendency to renal excretion, more likely a result of the increased polarity of the new ^18 F-folate [^18 F]12. Additionally, the highest unspecific background accumulation in the gall bladder was reduced by half. This background reduction correlated with the more renal excretion and the two times lower k’ value as an indicator of lipophilicity of the here presented radiofolate. […] On the other hand, the still increased uptake levels in the gall bladder and feces were evidence of a prominent hepatobiliary elimination pathway of [^18 F]12. However, distinct changes in the molecular structure of the folate-based radioconjugate [^18 F]12 induced a higher polarity into the lead molecule ^18 F-click folate and a significant reduction of the in vivo background.
Figure 2 Results of ex vivo biodistribution studies under control and blockade conditions using [^18 F]12 in mice. The human KB tumor-bearing nude mice were euthanized 60 min post-injection. Data are expressed as percentage injected dose per gram tissue (%ID/g).

[1] = Relative lipophilicity (capacity factor k’) by reversed-phase HPLC; format: physicochemical; conditions: methanol-phosphoric acid buffer eluent, pH 2
Method: The relative lipophilicity of 6 was determined as capacity factor k’ (k’ = (tretention - tsolvent) / tsolvent) by reversed-phase HPLC using a methanol-phosphoric acid buffer eluent system at pH 2. […] This method has already been described elsewhere. The capacity factor k’ (k’ = (tretention - tsolvent) / tsolvent) was determined using reversed-phase HPLC and enables different (radio)folates to be compared based on their polarity. The values determined can be used to give hint to the in vivo behavior in terms of the degree of hepatobiliary excretion by comparison with literature examples.

[2] = 60 min p.i., 100 μg native folic acid before tracer
[3] = 60 min p.i. blockade (100 μg folic acid 5 min before tracer)

16-(4-(((2-amino-4-oxo-3,4-dihydropteridin-6-yl)methyl)amino)benzamido)-1-(4-(2-(2-(2-[^18 F]fluoroethoxy)ethoxy)ethoxy)-1H-1,2,3-triazol-1-yl)-13-oxo-3,6,9-trioxa-12-azaheptadecan-17-oic acid [[^18 F]12]
Ratio of tumor to Blood (KB tumor-bearing mice; 30 min p.i.): 16.81 ± 3.13 | Ratio of tumor to Kidney (KB tumor-bearing mice; 30 min p.i.): 0.08 ± 0.02 | Ratio of tumor to Liver (KB tumor-bearing mice; 30 min p.i.): 0.69 ± 0.22 | decrease in specific radiotracer accumulation by FR blocking, KB tumors (KB tumor-bearing mice; [2]): 94% | decrease in specific radiotracer accumulation by FR blocking, kidneys (KB tumor-bearing mice; [2]): 99% | Ratio of tumor to Blood (KB tumor-bearing mice; 60 min p.i.): 18.95 ± 2.68 | Ratio of tumor to Kidney (KB tumor-bearing mice; 60 min p.i.): 0.08 ± 0.01 | Ratio of tumor to Liver (KB tumor-bearing mice; 60 min p.i.): 0.86 ± 0.19 | Ratio of tumor to Blood (KB tumor-bearing mice; 90 min p.i.): 22.72 ± 6.73 | Ratio of tumor to Kidney (KB tumor-bearing mice; 90 min p.i.): 0.09 ± 0.01 | Ratio of tumor to Liver (KB tumor-bearing mice; 90 min p.i.): 1.55 ± 0.15 | %ID/g Blood (KB tumor-bearing mice; 30 min p.i.): 0.20 ± 0.02 %ID/g | %ID/g Blood (KB tumor-bearing mice; [3]): 0.04 ± 0.01 %ID/g | %ID/g Blood (KB tumor-bearing mice; 60 min p.i.): 0.18 ± 0.01 %ID/g | %ID/g Blood (KB tumor-bearing mice; 90 min p.i.): 0.16 ± 0.02 %ID/g | %ID/g Bone (KB tumor-bearing mice; 30 min p.i.): 1.47 ± 0.05 %ID/g | %ID/g Bone (KB tumor-bearing mice; [3]): 0.06 ± 0.06 %ID/g | %ID/g Bone (KB tumor-bearing mice; 60 min p.i.): 1.13 ± 0.21 %ID/g | %ID/g Bone (KB tumor-bearing mice; 90 min p.i.): 0.84 ± 0.16 %ID/g | %ID/g Feces (KB tumor-bearing mice; 30 min p.i.): 164.2 ± 72.5 %ID/g | %ID/g Feces (KB tumor-bearing mice; [3]): 105.5 ± 128.7 %ID/g | %ID/g Feces (KB tumor-bearing mice; 60 min p.i.): 29.48 ± 19.04 %ID/g | %ID/g Feces (KB tumor-bearing mice; 90 min p.i.): 11.36 ± 4.29 %ID/g | %ID/g Gall bladder (KB tumor-bearing mice; 30 min p.i.): 309.3 ± 187.6 %ID/g | %ID/g Gall bladder (KB tumor-bearing mice; [3]): 775.5 ± 206.5 %ID/g | %ID/g Gall bladder (KB tumor-bearing mice; 60 min p.i.): 133.2 ± 67.38 %ID/g | %ID/g Gall bladder (KB tumor-bearing mice; 90 min p.i.): 55.13 %ID/g | %ID/g Heart (KB tumor-bearing mice; 30 min p.i.): 1.81 ± 0.61 %ID/g | %ID/g Heart (KB tumor-bearing mice; [3]): 0.02 ± 0.01 %ID/g | %ID/g Heart (KB tumor-bearing mice; 60 min p.i.): 1.09 ± 0.07 %ID/g | %ID/g Heart (KB tumor-bearing mice; 90 min p.i.): 0.79 ± 0.16 %ID/g | %ID/g Intestines (empty) (KB tumor-bearing mice; 30 min p.i.): 23.52 ± 7.37 %ID/g | %ID/g Intestines (empty) (KB tumor-bearing mice; [3]): 14.72 ± 19.32 %ID/g | %ID/g Intestines (empty) (KB tumor-bearing mice; 60 min p.i.): 4.56 ± 2.31 %ID/g | %ID/g Intestines (empty) (KB tumor-bearing mice; 90 min p.i.): 1.92 ± 0.52 %ID/g | %ID/g Tumor (KB tumor-bearing mice; 30 min p.i.): 3.4 %ID/g | %ID/g Tumor (KB tumor-bearing mice; 30 min p.i., listed as 12): 3.39 ± 0.54 %ID/g | %ID/g Tumor (KB tumor-bearing mice; [3]): 0.19 ± 0.07 %ID/g | %ID/g Tumor (KB tumor-bearing mice; 60 min p.i.): 3.39 ± 0.44 %ID/g | %ID/g Tumor (KB tumor-bearing mice; 90 min p.i.): 3.54 ± 0.68 %ID/g | %ID/g Kidneys (KB tumor-bearing mice; 30 min p.i.): 42 %ID/g | %ID/g Kidneys (KB tumor-bearing mice; 30 min p.i., listed as 12): 41.80 ± 2.58 %ID/g | %ID/g Kidneys (KB tumor-bearing mice; [3]): 0.26 ± 0.08 %ID/g | %ID/g Kidneys (KB tumor-bearing mice; 60 min p.i.): 40.77 ± 4.34 %ID/g | %ID/g Kidneys (KB tumor-bearing mice; 90 min p.i.): 41.04 ± 7.04 %ID/g | %ID/g Liver (KB tumor-bearing mice; 30 min p.i.): 5.2 %ID/g | %ID/g Liver (KB tumor-bearing mice; 30 min p.i., listed as 12): 5.24 ± 1.57 %ID/g | %ID/g Liver (KB tumor-bearing mice; [3]): 0.21 ± 0.09 %ID/g | %ID/g Liver (KB tumor-bearing mice; 60 min p.i.): 4.05 ± 0.67 %ID/g | %ID/g Liver (KB tumor-bearing mice; 90 min p.i.): 2.1 %ID/g | %ID/g Liver (KB tumor-bearing mice; 90 min p.i., listed as 12): 2.30 ± 0.54 %ID/g | %ID/g Lung (KB tumor-bearing mice; 30 min p.i.): 1.21 ± 0.15 %ID/g | %ID/g Lung (KB tumor-bearing mice; [3]): 0.04 ± 0.03 %ID/g | %ID/g Lung (KB tumor-bearing mice; 60 min p.i.): 1.02 ± 0.7 %ID/g | %ID/g Lung (KB tumor-bearing mice; 90 min p.i.): 0.86 ± 0.17 %ID/g | %ID/g Muscle (KB tumor-bearing mice; 30 min p.i.): 1.91 ± 0.25 %ID/g | %ID/g Muscle (KB tumor-bearing mice; [3]): 0.08 ± 0.09 %ID/g | %ID/g Muscle (KB tumor-bearing mice; 60 min p.i.): 1.64 ± 0.46 %ID/g | %ID/g Muscle (KB tumor-bearing mice; 90 min p.i.): 1.17 ± 0.03 %ID/g | %ID/g Salivary glands (KB tumor-bearing mice; 30 min p.i.): 8.01 ± 1.16 %ID/g | %ID/g Salivary glands (KB tumor-bearing mice; [3]): 0.20 ± 0.18 %ID/g | %ID/g Salivary glands (KB tumor-bearing mice; 60 min p.i.): 9.28 ± 1.68 %ID/g | %ID/g Salivary glands (KB tumor-bearing mice; 90 min p.i.): 7.03 ± 1.98 %ID/g | %ID/g Spleen (KB tumor-bearing mice; 30 min p.i.): 0.53 ± 0.14 %ID/g | %ID/g Spleen (KB tumor-bearing mice; [3]): 0.06 ± 0.03 %ID/g | %ID/g Spleen (KB tumor-bearing mice; 60 min p.i.): 0.49 ± 0.04 %ID/g | %ID/g Spleen (KB tumor-bearing mice; 90 min p.i.): 0.43 ± 0.08 %ID/g | %ID/g Stomach (empty) (KB tumor-bearing mice; 30 min p.i.): 2.18 ± 0.76 %ID/g | %ID/g Stomach (empty) (KB tumor-bearing mice; [3]): 0.12 ± 0.11 %ID/g | %ID/g Stomach (empty) (KB tumor-bearing mice; 60 min p.i.): 1.39 ± 0.13 %ID/g | %ID/g Stomach (empty) (KB tumor-bearing mice; 90 min p.i.): 0.96 ± 0.37 %ID/g | capacity factor k’ [1]: 1.12
